# Key:
# [1] = system: MNK2 (MNK2a or MNK2b) or MNK1; conditions: cell culture cells transfected with MNK2 (MNK2a or MNK2b) or MNK1; cited from earlier work
# MNK1a = MNK1a (Homo sapiens (Human), UniProt Q9BUB5); assay: MNK1 in vitro kinase assay (Assay 3), Z'-LYTE; assay type: biochemical; conditions: for inhibition at 1 µM: compound concentration of 1 μM, read-out: MNK1 % INH
# MNK2a = MNK2a (Homo sapiens (Human), UniProt Q9HBH9); assay: MNK2a in vitro kinase assay (Assay 2), ADP-Glo; assay type: biochemical; conditions: assay 2; read-out: MNK2 IC50
# Chain of MNK2a (Q9HBH9 whole entry): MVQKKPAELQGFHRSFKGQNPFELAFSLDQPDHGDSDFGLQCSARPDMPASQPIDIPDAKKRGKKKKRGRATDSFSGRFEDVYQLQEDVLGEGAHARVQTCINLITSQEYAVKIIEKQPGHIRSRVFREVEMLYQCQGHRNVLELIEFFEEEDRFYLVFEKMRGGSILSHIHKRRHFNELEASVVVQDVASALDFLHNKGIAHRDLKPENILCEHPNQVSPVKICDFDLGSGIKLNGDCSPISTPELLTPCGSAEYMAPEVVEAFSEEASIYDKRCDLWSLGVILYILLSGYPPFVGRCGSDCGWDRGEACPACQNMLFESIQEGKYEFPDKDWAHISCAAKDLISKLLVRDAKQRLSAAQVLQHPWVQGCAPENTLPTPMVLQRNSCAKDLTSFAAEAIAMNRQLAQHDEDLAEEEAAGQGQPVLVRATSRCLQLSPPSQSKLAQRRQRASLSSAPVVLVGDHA
# Excerpt: B. MNK2a In Vitro Kinase Assay (Assay 2)
# Chain of MNK1a (Q9BUB5 other isoform, or with tags, fused parts or gaps): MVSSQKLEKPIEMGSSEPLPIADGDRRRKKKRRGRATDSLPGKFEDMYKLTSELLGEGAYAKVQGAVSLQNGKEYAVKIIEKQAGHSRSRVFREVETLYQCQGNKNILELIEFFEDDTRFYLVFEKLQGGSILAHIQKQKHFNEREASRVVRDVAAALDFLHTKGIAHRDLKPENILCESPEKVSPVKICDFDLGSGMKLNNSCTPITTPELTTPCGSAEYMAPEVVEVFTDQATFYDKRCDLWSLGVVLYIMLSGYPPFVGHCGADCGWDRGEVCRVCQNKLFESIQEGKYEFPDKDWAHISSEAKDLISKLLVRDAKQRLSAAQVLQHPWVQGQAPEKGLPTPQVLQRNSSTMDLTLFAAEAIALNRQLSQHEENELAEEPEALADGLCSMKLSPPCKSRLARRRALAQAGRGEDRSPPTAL
inhibition at 1 µM (MNK1a) [%],IC50 (MNK2a) [µM],IC50 (MNK1a) [µM],SMILES,reduction of phosphorylated eIF4E [1]
–,–,–,Nc1ncnc2n[nH]c(Nc3ccc(F)cc3)c12 [CGP57380],strong reduction of phosphorylated eIF4E
97,0.003,–,Cc1cc(N=S2(=O)CCC(C)C2)cc2ncnc(Nc3ccc(F)cc3O[C@H]3COC[C@@H]3O)c12 (some centres unmarked) [Example 2.85],–
99,0.002,0.044,O=S1(=Nc2cc(F)c3c(Nc4ccc(F)cc4O[C@H]4COC[C@@H]4O)ncnc3c2)CCC1 [Example 2.92],–
74,0.031,–,CC(=O)N1C[C@@H](O)[C@H](Oc2cc(F)ccc2Nc2ncnc3cc(N=S(C)(C)=O)cc(C)c23)C1 [Example 2.102],–
93,0.029,–,Cc1cc(N=S2(=O)CCCC2)cc2ncnc(Nc3cccnc3O[C@@H]3CNC[C@H]3O)c12 [Example 3.1],–
66,0.047,–,Cc1cc(N=S(C)(C)=O)cc2ncnc(Nc3cccnc3O[C@@H]3CNC[C@H]3O)c12 [Example 3.2],–
88,0.026,–,Cc1cc(N=S2(=O)CCCC2)cc2ncnc(Nc3cccnc3O[C@H]3CNC[C@@H]3O)c12 [Example 3.3],–
82,0.021,–,Cc1cc(N=S(C)(C)=O)cc2ncnc(Nc3ccc(F)cc3O[C@@H]3CNC[C@H]3O)c12 [Example 3.4],–
–,0.006,0.097,Cc1cc(N=S2(=O)CCCC2)cc2ncnc(Nc3ccc(F)cc3O[C@@H]3CNC[C@H]3O)c12 [Example 3.5],–
84,0.038,–,Cc1cc(N=S(C)(C)=O)cc2ncnc(Nc3ccc(F)cc3O[C@H]3CNC[C@@H]3O)c12 [Example 3.7],–
64,0.045,–,CO[C@@H]1CNC[C@H]1Oc1cc(F)ccc1Nc1ncnc2cc(N=S(C)(C)=O)cc(C)c12 [Example 4.1],–
87,0.008,–,CO[C@@H]1CNC[C@H]1Oc1cc(F)ccc1Nc1ncnc2cc(N=S3(=O)CCCC3)cc(C)c12 [Example 4.2],–
54,0.04,–,CCN1C[C@@H](OC)[C@H](Oc2cc(F)ccc2Nc2ncnc3cc(N=S4(=O)CCCC4)cc(C)c23)C1 [Example 4.3],–
93,0.011,–,CO[C@@H]1CNC[C@H]1Oc1ncccc1Nc1ncnc2cc(N=S3(=O)CCCC3)cc(C)c12 [Example 4.4],–
63,0.033,–,CO[C@@H]1CNC[C@H]1Oc1ncccc1Nc1ncnc2cc(N=S(C)(C)=O)cc(C)c12 [Example 4.5],–
–,0.016,0.373,CO[C@@H]1CN(CC(F)F)C[C@H]1Oc1cc(F)ccc1Nc1ncnc2cc(N=S3(=O)CCCC3)cc(C)c12 [Example 5.1],–
56,0.072,–,CO[C@@H]1CN(CC(F)F)C[C@H]1Oc1ncccc1Nc1ncnc2cc(N=S(C)(C)=O)cc(C)c12 [Example 5.2],–
31,0.109,–,CO[C@@H]1CN(CCF)C[C@H]1Oc1ncccc1Nc1ncnc2cc(N=S(C)(C)=O)cc(C)c12 [Example 5.3],–
35,0.044,–,CO[C@@H]1CN(CC(F)F)C[C@H]1Oc1cc(F)ccc1Nc1ncnc2cc(N=S(C)(C)=O)cc(C)c12 [Example 5.4],–
85,0.013,–,CO[C@@H]1CN(CC(F)F)C[C@H]1Oc1ncccc1Nc1ncnc2cc(N=S3(=O)CCCC3)cc(C)c12 [Example 5.5],–
10,0.389,–,CO[C@@H]1CN(C(C)=O)C[C@H]1Oc1cc(F)ccc1Nc1ncnc2cc(N=S(C)(C)=O)cc(C)c12 [Example 6.1],–
31,0.185,–,CO[C@@H]1CN(C(C)=O)C[C@H]1Oc1cc(F)ccc1Nc1ncnc2cc(N=S3(=O)CCCC3)cc(C)c12 [Example 6.2],–
9,0.584,–,CO[C@@H]1CN(C(C)=O)C[C@H]1Oc1ncccc1Nc1ncnc2cc(N=S(C)(C)=O)cc(C)c12 [Example 6.3],–
62,0.02,–,CO[C@@H]1CN(S(C)(=O)=O)C[C@H]1Oc1cc(F)ccc1Nc1ncnc2cc(N=S3(=O)CCCC3)cc(C)c12 [Example 6.4],–

inhibition at 1 µM (MNK1a) [%],IC50 (MNK2a) [µM],IC50 (MNK1a) [µM],SMILES,reduction of phosphorylated eIF4E [1]
60,0.028,–,CO[C@@H]1CN(S(C)(=O)=O)C[C@H]1Oc1ncccc1Nc1ncnc2cc(N=S3(=O)CCCC3)cc(C)c12 [Example 6.5],–
–,0.08,1.4,CO[C@@H]1CN(S(C)(=O)=O)C[C@H]1Oc1ncccc1Nc1ncnc2cc(N=S(C)(C)=O)cc(C)c12 [Example 6.6],–
35,0.062,–,CO[C@@H]1CN(S(C)(=O)=O)C[C@H]1Oc1cc(F)ccc1Nc1ncnc2cc(N=S(C)(C)=O)cc(C)c12 [Example 6.7],–
41,0.128,–,CO[C@@H]1CN(C(C)=O)C[C@H]1Oc1ncccc1Nc1ncnc2cc(N=S3(=O)CCCC3)cc(C)c12 [Example 6.8],–
38,0.378,–,CC(=O)O[C@H]1CN(C(C)=O)C[C@@H]1Oc1ncccc1Nc1ncnc2cc(N=S3(=O)CCCC3)cc(C)c12 [Example 6.10],–
97,0.003,–,COc1cc(N=S2(=O)CCCC2)cc2ncnc(Nc3ccc(Cl)nc3O[C@H]3COC[C@@H]3O)c12 [Example 8.1],–
100,0.003,–,COc1cc(N=S(C)(C)=O)cc2ncnc(Nc3ccc(Cl)nc3O[C@H]3COC[C@@H]3O)c12 [Example 8.2],–
97,0.006,–,COc1cc(N=S2(=O)CCCC2)cc2ncnc(Nc3cccnc3O[C@H]3COC[C@@H]3O)c12 [Example 8.3],–
102,0.007,–,COc1cc(N=S(C)(C)=O)cc2ncnc(Nc3ccc(F)cc3O[C@H]3COC[C@@H]3O)c12 [Example 9.4],–
94,0.008,–,CCOc1cc(N=S(C)(C)=O)cc2ncnc(Nc3ccc(F)cc3O[C@H]3COC[C@@H]3O)c12 [Example 9.6],–
75,0.039,–,CS(C)(=O)=Nc1cc(OCCF)c2c(Nc3ccc(F)cc3O[C@H]3COC[C@@H]3O)ncnc2c1 [Example 9.8],–
94,0.007,–,COc1cc(N=S(C)(=O)C(C)C)cc2ncnc(Nc3ccc(F)cc3O[C@H]3COC[C@@H]3O)c12 (some centres unmarked) [Example 9.9],–
104,0.003,0.028,COc1cc(N=S2(=O)CCC2)cc2ncnc(Nc3ccc(F)cc3O[C@H]3COC[C@@H]3O)c12 [Example 9.10],–
84,0.013,–,COc1cc(N=S(C)(=O)c2cccnc2)cc2ncnc(Nc3ccc(F)cc3O[C@H]3COC[C@@H]3O)c12 (some centres unmarked) [Example 9.14],–
97,0.008,–,COc1cc(N=S(C)(=O)C(C)(C)C)cc2ncnc(Nc3ccc(F)cc3O[C@H]3COC[C@@H]3O)c12 (some centres unmarked) [Example 9.18],–
97,0.004,–,COc1cc(N=S2(=O)CCC(C)C2)cc2ncnc(Nc3ccc(F)cc3O[C@H]3COC[C@@H]3O)c12 (some centres unmarked) [Example 9.24],–
94,0.003,–,COc1cc(N=S2(=O)CCCC2)cc2ncnc(Nc3ccc(F)cc3O[C@H]3COC[C@@H]3O)c12 [Example 9.29],–
44,0.054,–,CO[C@@H]1CN(C)C[C@H]1Oc1cc(F)ccc1Nc1ncnc2cc(N=S(C)(C)=O)cc(C)c12 [Example 11.1],–
75,0.031,–,CO[C@@H]1CN(C)C[C@H]1Oc1cc(F)ccc1Nc1ncnc2cc(N=S3(=O)CCCC3)cc(C)c12 [Example 11.2],–
87,0.012,–,CO[C@@H]1CN(C)C[C@H]1Oc1ncccc1Nc1ncnc2cc(N=S3(=O)CCCC3)cc(C)c12 [Example 11.3],–
56,0.059,–,CO[C@@H]1CN(C)C[C@H]1Oc1ncccc1Nc1ncnc2cc(N=S(C)(C)=O)cc(C)c12 [Example 11.4],–
79,0.015,–,Cc1cc(N=S2(=O)CCCC2)cc2ncnc(Nc3ccc(F)cc3O[C@@H]3COC[C@@H]3OCc3ccccc3)c12 [Example 13.3],–
–,0.001,0.08,CO[C@@H]1COC[C@@H]1Oc1cc(F)ccc1Nc1ncnc2cc(N=S(C)(C)=O)cc(C)c12 [Example 14.8],–

# Reference: US10093660B2, “Sulfoximine substituted quinazolines for pharmaceutical compositions” (EVOTEC INTERNATIONAL GMBH, priority 2013, dated 2018)
